Test results from patent US11707442B2, “Antibacterial and antifungal compounds” (The General Hospital Corporation, priority 2015, dated 2023).
“Also recorded” adds a separate entry of the source.

Assays:
MRSA strain MW2 = assay: Checkerboard assay (combination); type: cell-based, Staphylococcus aureus; details: result in words
Protocol: (§1) Checkerboard assay (e.g., antibiotic synergy test): The antimicrobial or antifungal activity of a combination of a compound of present application with other agents was determined through a checkerboard assay. The checkerboard method for determining synergy of synthetic retinoids with conventional antibiotics can be conducted, for example, as previously described (See, e.g., Rajamuthiah, R. et al. A defensin from the model beetle Tribolium castaneum acts synergistically with telavancin and daptomycin against multidrug resistant Staphylococcus aureus. PLoS ONE 10, e0128576 (2015)) The compounds whose combinations were being tested were arrayed in serial concentrations, vertically for one compound and horizontally for the other compound in the same 96 well microplate. 2-fold serial dilutions of each retinoid were combined with 2-fold serial dilutions of each conventional antibiotic, which created an 8×8 matrix in a 96-well microtiter plate. The rest of the procedure involving addition of pathogen and measurement of growth was carried out as described for measurement of MIC.
The Fractional Inhibitory Concentration (FIC) index for two compounds, A and B, is defined by the following equation: FIC=((A/MIC^A)+(B/MIC^B)). MIC^A and NIC^B are MICs of compound A or B respectively. (A) is the lowest concentration of compound A in combination with compound B that inhibits growth of a pathogen and (B) is the lowest concentration of compound B that inhibits growth of a pathogen.
Optical densities at 600 nm were measured after 18 h of incubation at 37° C. The results represent three independent experiments.

E. faecium [1] = assay: Checkerboard assay with glutathione; type: cell-based, Enterococcus faecium; details: result in words
Protocol: as §1
(§2) The Fractional Inhibitory Concentration (FIC) index for two compounds, A and B, is defined by the following equation: FIC=((A/MIC^A)+(B/MIC^B)). MIC^A and NIC^B are MICs of compound A or B respectively. […]

B. subtilis = assay: Disc clearing assay; type: cell-based, Bacillus subtilis; details: result in words
Protocol: (§3) Disc clearing assay: The disc diffusion test was performed on Mueller Hinton (MH) agar plates for bacterial cultures and yeast extract, peptone, dextrose (YPD) for fungal cultures. The assay was repeated 3 times. Discs were soaked in 10 μl of either DMSO or 10 mg/ml compound stock solution and air-dried. Three hundred microliters of an overnight culture of bacteria or fungi were spread on plates. After completely drying the agar plate in a laminar flow hood, DMSO or compound impregnated discs were overlaid on the plate and incubated at 35° C. for 18 hrs.

A. baumannii = assay: Disc clearing assay; type: cell-based, Acinetobacter baumannii; details: result in words
Protocol: as §3

C. neoformans [2] = assay: Checkerboard assay with oxidizing agents; type: cell-based, Cryptococcus neoformans; details: result in words
Protocol: as §1, §2

S. aureus = assay: Disc clearing assay; type: cell-based, Staphylococcus aureus; details: result in words
Protocol: as §3
The disc diffusion test was carried out in triplicate on cation-adjusted Miller-Hinton agar. 6 mm discs were impregnated with 50 μg of compounds and air-dried. Three hundred microliters of an overnight S. aureus MW2 culture was spread on an agar plate and air-dried. The antimicrobial discs were overlaid on the plate and incubated at 37° C. for 20 hrs.

E. faecalis = assay: Disc clearing assay; type: cell-based, Enterococcus faecalis; details: result in words
Protocol: as §3

[3] = Checkerboard assay of auranofin with amphotericin B and fluconazole; type: cell-based; details: result in words
Protocol: as §1, §2

[4] = test system: S. aureus, E. faecium, and A. baumannii; assay: Static versus cidal assessment (MBC); type: cell-based; details: result in words
Protocol: Static versus cidal assessment: The minimum bactericidal concentration (MBC) was determined as follows: 10 μl of bacterial culture from each micro-well of the MIC assay was plated on MH agar and incubated at 35° C. overnight. The lowest compound concentration at which there was no bacterial colony growth was considered the MBC.

C. albicans = assay: Static versus cidal assessment (MFC); type: cell-based, Candida albicans; details: result in words
Protocol: The minimum fungicidal concentration was (MFC) was determined as follows: 10 μl of yeast culture from each micro-well of the MIC assay was plated on YPD agar and incubated at 35° C. overnight. The lowest compound concentration at which there was no fungal colony growth was considered the MFC.

C. albicans biofilm = assay: Biofilm growth on silicone pads; type: cell-based, Candida albicans; details: result in words
Protocol: C. albicans were grown in YPD medium overnight at 30° C., diluted to an OD600 of 0.5 in 2 mL Spider medium, and added to a well of a sterile 12-well plate containing a silicone pad measuring 1.5×1.5 cm that had been pretreated overnight with bovine serum (Sigma-Aldrich). The inoculated 12-well plate was incubated with gentle agitation (150 rpm) for 90 min at 37° C. for adhesion to occur. The samples were washed with 2 ml PBS, and after the 90-min incubation, and PBS wash, auranofin was added to fresh media at 4 μg/ml (n=4), 8 μg/ml (n=4), 16 μg/ml (n=4), and 32 μg/ml (n=4).
Control groups were included that contained C. albicans alone in Spider medium without auranofin (n=4) and a negative control group of Spider medium without any fungal cells (n=4).
The silicone pads with biofilm were removed from the wells, dried overnight, and weighed the following day. The total biomass (mg) of each biofilm was calculated by subtracting the weight of the platform material prior to biofilm growth from the weight after the drying period and adjusting for the weight of a control pad exposed to no cells.
Statistical significance among the different groups was determined by the analysis of variance (ANOVA) and the Tukey test using the Graph Pad Prism Program.

C. glabrata = assay: Disc clearing assay; type: cell-based, Candida glabrata; details: result in words
Protocol: as §3

C. parapsilosis = assay: Disc clearing assay; type: cell-based, Candida parapsilosis; details: result in words
Protocol: as §3

C. tropicalis = assay: Disc clearing assay; type: cell-based, Candida tropicalis; details: result in words
Protocol: as §3

E. faecium [5] = assay: Disc clearing assay; type: cell-based, Enterococcus faecium; details: result in words
Protocol: as §3

C. neoformans [6] = assay: Disc clearing assay; type: cell-based, Cryptococcus neoformans; details: impregnated filter; result in words
Protocol: as §3

| SMILES | inhibition of S. aureus by the agent alone (MRSA strain MW2) | inhibition of E. faecium by the agent alone (E. faecium [1]) | zone of inhibition, B. subtilis (B. subtilis) | zone of inhibition, A. baumannii (A. baumannii) | MIC change in the presence of menadione (C. neoformans [2]) | interaction with diamide and hydrogen peroxide (C. neoformans [2]) | zone of inhibition, S. aureus (S. aureus) | zone of inhibition, E. faecalis (E. faecalis) | interaction with amphotericin B and fluconazole [3] | interaction with hydrogen peroxide (MRSA strain MW2; S. aureus) | static versus cidal nature of the inhibition [4] | static versus cidal activity against C. albicans (C. albicans) | C. albicans biofilm formation (C. albicans biofilm) | zones of inhibition, C. glabrata (C. glabrata) | zones of inhibition, C. parapsilosis (C. parapsilosis) | zones of inhibition, C. tropicalis (C. tropicalis) | zone of inhibition, E. faecium (E. faecium [5]) | clearing of C. neoformans (C. neoformans [6]) |
| --- | --- | --- | --- | --- | --- | --- | --- | --- | --- | --- | --- | --- | --- | --- | --- | --- | --- | --- |
| N[C@@H](CCC(=O)N[C@@H](CS)C(=O)NCC(=O)O)C(=O)O [Glutathione] | did not inhibit | did not inhibit |  |  |  |  |  |  |  |  |  |  |  |  |  |  |  |  |
| CC[P](CC)(CC)=[Au][S][C@@H]1O[C@H](COC(C)=O)[C@@H](OC(C)=O)[C@H](OC(C)=O)[C@H]1OC(C)=O [Auranofin, 2,3,4,6-tetra-o-acetyl-1-thio-D-glucanpyranosato-S-(triethyl-phosphine)-gold] |  |  | clearing; also recorded: zone of inhibition | zone of inhibition | no change in MIC | additive effect | zone of inhibition | clearing; also recorded: zone of inhibition | additive effects but not synergism | did not provide any synergistic activity | bacteriostatic at the MIC concentration but bactericidal at higher concentrations | fungistatic | not significantly reduced | zones of inhibition | zones of inhibition | zones of inhibition | zone of inhibition | clearing |
